We go through one molecule from patent publication US20220323454A1, “PHENOTHIAZINES AND THEIR DERIVATIVES FOR USE AS A MEDICAMENT” (Guangzhou Virotech Pharmaceutical Co., Ltd., priority 2019, published 2022).

Molecules are shown by their SMILES.

For the experiment, the system named is Jurkat-PD-1-NFAT-LUC cells. The experiment can be described thus: NFAT-luciferase activity in Jurkat-PD-1-NFAT-LUC cells co-cultured with Raji-PD-L1 cells. Format: cell-based, human. Particulars: 4.86 μM MTC or LMT added with Raji-PD-L1 cells, 6 h co-culture; FIG. 1E. The protocol:
(1) Jurkat cells were used to construct a stable cell line expressing PD-1. The pCAGin-PD-1 plasmid was electroporated into Jurkat cells, which were then screened with 900 μg/mL G418 antibiotic and flow-sorted for single clones. Jurkat-PD-1 cells were then electroporated into a DNA fragment that controls the luciferase gene through the NFAT-binding site (referred to as NFAT-LUC). A single clone was then flow-sorted and named clone 5. Using this cell, the expression level of IL-2 can be measured by the activity of luciferase. Raji cells stably expressing PD-L1 were constructed, and the pCDNA-PD-L1 plasmid was electroporated into the Raji cells, followed by screening with 2 μg/mL puromycin, and then flow-sorted single clones and named clone 1.
(4) A 96-well plate was coated with 10 μg/mL CD3 antibody/10 μg/mL CD28 antibody overnight at 4° C., and excess antibody then washed off with PBS. Raji cells or Raji-PD-L1 cells were co-cultured with Jurkat-PD-1-NFAT-LUC cells at a ratio of 1:1, or to a mixture of Raji-PD-L1 cells and Jurkat-PD-1-NFAT-LUC cells at a ratio of 1:1 was added 4.86 μM MTC or LMT. Luciferase substrate was added after 6h co-culture and the luciferase activity was measured by a microplate reader.

Take `CN(C)c1ccc2nc3ccc(N(C)C)cc3[s+]c2c1` [MTC, 3,7-bis(dimethylamino)-phenothiazine-5-ium chloride]: the luciferase activity entry is “increased dramatically”.
